According to patent publication US20240228491A1, “METHIONINE ADENOSYLTRANSFERASE INHIBITOR, PREPARATION METHOD THEREFOR AND APPLICATION THEREOF” (SCINNOHUB PHARMACEUTICAL CO., LTD., priority 2021, published 2024):

Tests used:
MAT2a = MAT2a (Homo sapiens (Human), UniProt P31153); experiment: MAT2a enzymatic activity test (colorimetric assay); format: biochemical; settings: OD620, 150 min reaction, read-out: IC50 against MAT2a
Experimental: The Colorimetric assay method was used to detect the IC50 value of the tested compounds on MAT2a.
The specific steps were as follows: The compounds having the test starling concentration of 1 μM or 10 μM were diluted into 10 concentration points in a 3-fold gradient. 250 nL of the solutions of the compounds to be tested with 10 different concentrations were taken and added into a 384 well plate for later use. 20 μg/mL of MAT2a enzyme solution was prepared with Assay buffer (50 mM Tris, 50 mM KCl, 10 mM MgCl2, 0.05% polyoxyethylene lauryl ether, pH 8.0). 15 μL of the MAT2a enzyme solution at 20 μg/mL was add into the wells of the compounds to be tested at different concentrations; and 15 μL of Assay buffer was added into the negative control well. An incubation was carried out for 15 minutes after shaking for mixing well. A mixed substrate solution (comprising 400 μM ATP and 600 μM L-Methionine) was prepared with Assay buffer. 10 μL of the mixed substrate solution was added to the positive control well, the compound to be tested well, and the negative control well, respectively, and the reaction began, for a reaction time of 150 min. Then, 50 μL of the reaction stop solution (BIOMOL Green™ Reagent Enzo lifesciences, Cargo No. BML-AK111-1000) was added to stop the reaction, followed by being centrifuged at 1000 rpm for 60 s and then being incubated for 15 min. OD620 was read and data were processed.
By using the log value of the concentration as the X-axis and the inhibition % as the Y-axis, the IC50 value of each compound against enzyme activity was obtained through employing the log(inhibitor) vs. response-Variable slope fitting dose-effect curve of the analysis software GraphPad Prism 5.

HCT116 MTAP-/- cells = experiment: Activity test of HCT116 MTAP gene homozygous deletion cells (CellTiter-Glo); format: cell-based; settings: Homo sapiens, HCT-116, 120 h incubation, read-out: HCT116 MTAP-/- Cell IC50
Experimental: On day 1, cell seeding: after digestion of the cells with trypsin, the cells were resuspended to the desired density with the complete medium (RPMI-1640 supplemented with 10% FBS; the brand of FBS is EXCELL, Cat. No. FND500; the brand of RPMI-1640 is ATCC, Cat. No. 30-2001), mixed evenly, and added into the 96-well plate at 100 μL/well with a cell density of 1000-3000 cells per well. The plate was put back to the incubator for the adherent growth of cells. On day 2, the addition of the compounds to be tested: before the addition of the compounds, the cells were starved with serum-free medium for 4 h, then the complete medium containing the corresponding concentration of compounds was added thereto, and the cells were incubated at 37° C., 5% CO2 for 120 h. On day 7, the cell culture plates were taken out from incubator and equilibrated to room temperature. 50 μL of CellTiter-Glo (Promega Company, Cat. No. G7571) reagent was added per well, and the cells were fully lysed by shaking at room temperature for 2 min, and then incubated for another 60 min to detect the fluorescence intensity. Calculation formula:
% Inhibition=100−(signal of the well with the compound to be tested−signal of the well with only medium and free of cells)/(signal of the well with cells but without addition of the compound−signal of the well with only medium and free of cells)×100.
The fitting dose-effect curve of the analysis software GraphPad Prism 5 was used to give IC50 values of the individual compounds against cellular activity.

Sequence of MAT2a (P31153 whole entry): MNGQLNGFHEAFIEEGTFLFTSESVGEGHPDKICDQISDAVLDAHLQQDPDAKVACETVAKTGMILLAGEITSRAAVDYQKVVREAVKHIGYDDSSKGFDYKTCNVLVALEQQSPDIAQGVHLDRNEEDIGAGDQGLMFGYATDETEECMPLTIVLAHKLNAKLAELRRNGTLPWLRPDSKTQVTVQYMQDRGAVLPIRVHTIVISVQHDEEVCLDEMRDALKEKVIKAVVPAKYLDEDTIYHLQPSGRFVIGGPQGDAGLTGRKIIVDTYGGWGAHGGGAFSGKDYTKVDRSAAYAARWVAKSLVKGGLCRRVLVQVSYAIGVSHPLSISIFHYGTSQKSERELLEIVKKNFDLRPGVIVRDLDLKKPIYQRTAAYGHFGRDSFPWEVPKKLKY

Row | SMILES | IC50 (MAT2a) | IC50 (HCT116 MTAP-/- cells)
1 | Cc1ccc(-n2c(=O)c(-n3cncn3)c(N)c3ccc(C(F)(F)F)nc32)cc1 [Example 82] | 16 nM | 
2 | CNc1c(-c2ccccc2)c(=O)n(-c2ccccc2)c2nc(C(F)(F)F)ccc12 [Example 13] | 32 nM | 638 nM
3 | Nc1c(-n2ccnc2)c(=O)n(-c2ccc(Cl)cc2)c2nc(C(F)(F)F)ccc12 [Example 35] | 14.9 nM | 
4 | Cc1ccc(-n2c(=O)c(-c3ccnc(C)c3)c(N)c3ccc(C(F)(F)F)nc32)cc1 [Example 91] | 18 nM | 
5 | COc1ccc(-c2c(N)c3ccc(C(F)(F)F)nc3n(-c3ccc(Br)cc3)c2=O)nc1 [Example 85] | 15.2 nM | 
6 | CNc1c(-c2cccs2)c(=O)n(-c2ccccc2)c2nc(C(F)(F)F)ccc12 [Example 10] | 20.9 nM | 
7 | CNc1c(-c2ccoc2)c(=O)n(-c2ccccc2)c2nc(C(F)(F)F)ccc12 [Example 9] | 21.4 nM | 
8 | COc1ccc(-c2c(N)c3ccc(C(F)(F)F)nc3n(-c3ccc(Br)cc3)c2=O)cn1 [Example 93] | 16.3 nM | 
9 | CNc1c(-c2ccco2)c(=O)n(-c2ccccc2)c2nc(C(F)(F)F)ccc12 [Example 11] | 21.4 nM | 
10 | Cc1ccc(-n2c(=O)c(-n3cccn3)c(N)c3ccc(C(F)(F)F)nc32)cc1 [Example 81] | 17 nM | 
11 | COc1ccc(-c2c(N)c3ccc(C(F)(F)F)nc3n(-c3ccc(Br)cc3)c2=O)cc1 [Example 79, 4-amino-1-(4-bromophenyl)-3-(4-methoxyphenyl)-7-(trifluoromethyl)-1,8-naphthyridin-2(1H)-one] | 18 nM | 10.9 nM
12 | CNc1c(-c2cncs2)c(=O)n(-c2ccc(Cl)cc2)c2nc(C(F)(F)F)ccc12 [Example 12] | 25.8 nM | 
13 | Cc1ccc(-n2c(=O)c(-c3ccn4ncnc4c3)c(N)c3ccc(C(F)(F)F)nc32)cc1 [Example 90] | 16.9 nM | 
14 | Cc1cc(-c2c(N)c3ccc(C(F)(F)F)nc3n(-c3ccc(Cl)cc3)c2=O)on1 [Example 16] | 41.9 nM | 
15 | CNc1c(-c2ncco2)c(=O)n(-c2ccccc2)c2nc(C(F)(F)F)ccc12 [Example 7, 4-(methylamino)-3-(oxazol-2-yl)-1-phenyl-7-(trifluoromethyl)-1,8-naphthyridin-2(1H)-one] | 37.9 nM | 800 nM
16 | Cn1cc(-c2c(N)c3ccc(C(F)(F)F)nc3n(-c3ccc(Cl)cc3F)c2=O)ccc1=O [Example 78] | 14 nM | 
17 | Nc1c(-c2ccc3nccnc3c2)c(=O)n(-c2ccc(Br)cc2)c2nc(C(F)(F)F)ccc12 [Example 83] | 17.2 nM | 9.12 nM
18 | Nc1c(-c2ccnc(C(F)(F)F)c2)c(=O)n(-c2ccc(Cl)cc2)c2nc(C(F)(F)F)ccc12 [Example 77] | 13.9 nM | 
19 | CNc1c(-c2cncs2)c(=O)n(-c2ccccc2)c2nc(C(F)(F)F)ccc12 [Example 29] | 25.2 nM | 427 nM
20 | COc1ccc(-c2c(N)c3ccc(C(F)(F)F)nc3n(-c3ccc(Cl)cc3)c2=O)nc1 [Example 61] | 17 nM | 
21 | Nc1c(-c2cncs2)c(=O)n(-c2ccc(Cl)cc2)c2nc(C(F)(F)F)ccc12 [Example 33] | 20.2 nM | 
22 | Nc1c(-c2ccc(F)cc2)c(=O)n(-c2ccc(Br)cc2)c2nc(C(F)(F)F)ccc12 [Example 84] | 28.2 nM | 
23 | Nc1c(-c2ccc(=O)n(CC(F)(F)F)c2)c(=O)n(-c2ccc(Cl)cc2)c2nc(C(F)(F)F)ccc12 [Example 57] | 17.1 nM | 
24 | Nc1c(-c2ccc3c(c2)OCO3)c(=O)n(-c2ccc(Br)cc2)c2nc(C(F)(F)F)ccc12 [Example 86] | 15.9 nM | 
25 | CNc1c(-c2nccs2)c(=O)n(-c2ccccc2)c2nc(C(F)(F)F)ccc12 [Example 2, 4-(methylamino)-1-phenyl-3-(thiazol-2-yl)-7-(trifluoromethyl)-1,8-naphthyridin-2(1H)-one] | 26.1 nM | 
26 | Nc1c(-c2cc3nccnc3cn2)c(=O)n(-c2ccc(Cl)cc2)c2nc(C(F)(F)F)ccc12 [Example 59] | 25.4 nM | 
27 | Cn1cc(-c2c(N)c3ccc(C(F)(F)F)nc3n(-c3ccc(Cl)c(F)c3)c2=O)ccc1=O [Example 74] | 16.4 nM | 
28 | Cc1ccc(-c2c(N)c3ccc(C(F)(F)F)nc3n(-c3ccc(Cl)cc3)c2=O)o1 [Example 14] | 22.9 nM | 
29 | Cc1ccc(-n2c(=O)c(-c3ccc4c(c3)OCCO4)c(N)c3ccc(C(F)(F)F)nc32)cc1 [Example 88] | 16 nM | 
30 | CNc1c(-c2ncc[nH]2)c(=O)n(-c2ccccc2)c2nc(C(F)(F)F)ccc12 [Example 8, 3-(1H-imidazol-2-yl)-4-(methylamino)-1-phenyl-7-(trifluoromethyl)-1,8-naphthyridin-2(1H)-one] | 8.7 nM | 

Now from value to molecule:

Row | IC50 (MAT2a) | IC50 (HCT116 MTAP-/- cells) | SMILES
31 | 16.5 nM |  | Cc1ccc(-n2c(=O)c(-c3ccc4nn(C)cc4c3)c(N)c3ccc(C(F)(F)F)nc32)cc1 [Example 89]
32 | 16 nM |  | Cn1ncc2cc(-c3c(N)c4ccc(C(F)(F)F)nc4n(-c4ccc(Cl)cc4)c3=O)ccc21 [Example 66]
33 | 14.9 nM |  | Nc1c(-c2ccc3nncn3c2)c(=O)n(-c2ccc(Cl)cc2)c2nc(C(F)(F)F)ccc12 [Example 32]
34 | 26.3 nM |  | N#Cc1ccc(-c2c(N)c3ccc(C(F)(F)F)nc3n(-c3ccc(Cl)cc3)c2=O)cc1 [Example 40]
35 | 16.2 nM |  | CS(=O)(=O)CCn1cc2cc(-c3c(N)c4ccc(C(F)(F)F)nc4n(-c4ccc(Cl)cc4)c3=O)ccc2n1 [Example 51]
36 | 16.3 nM |  | N#Cc1cc(-c2c(N)c3ccc(C(F)(F)F)nc3n(-c3ccc(Cl)cc3)c2=O)ccn1 [Example 76]
37 | 51.4 nM |  | Nc1c(-c2ccc3cccnc3c2)c(=O)n(-c2ccc(Cl)cc2)c2nc(C(F)(F)F)ccc12 [Example 18]
38 | 15.4 nM | 10.7 nM | Cn1nc2ccc(-c3c(N)c4ccc(C(F)(F)F)nc4n(-c4ccc(Cl)cc4)c3=O)cc2n1 [Example 64]
39 | 17.2 nM |  | Nc1c(-c2ccc3[nH]cnc3c2)c(=O)n(-c2ccc(Cl)cc2)c2nc(C(F)(F)F)ccc12 [Example 50]
40 | 30.5 nM |  | Nc1c(-c2ccc3cncnc3c2)c(=O)n(-c2ccc(Cl)cc2)c2nc(C(F)(F)F)ccc12 [Example 70]
41 | 17.4 nM |  | Nc1c(-c2ccc3ccccc3c2)c(=O)n(-c2ccc(Cl)cc2)c2nc(C(F)(F)F)ccc12 [Example 58]
42 | 15.2 nM |  | Nc1c(-c2ccccc2)c(=O)n(-c2ccc(Cl)cc2)c2nc(C(F)(F)F)ccc12 [Example 65]
43 | 18.8 nM |  | CN(C)CCn1ncc2cc(-c3c(N)c4ccc(C(F)(F)F)nc4n(-c4ccc(Cl)cc4)c3=O)ccc21 [Example 73]
44 | 13.8 nM |  | Cc1cc(-c2c(N)c3ccc(C(F)(F)F)nc3n(-c3ccc(Cl)cc3)c2=O)ccn1 [Example 75]
45 | 17.4 nM |  | Cn1cc2cc(-c3c(N)c4ccc(C(F)(F)F)nc4n(-c4ccc(Br)cc4)c3=O)ccc2n1 [Example 92]
46 | 15.5 nM | 13.1 nM | Cn1cnc2ccc(-c3c(N)c4ccc(C(F)(F)F)nc4n(-c4ccc(Br)cc4)c3=O)cc21 [Example 80]
47 | 17.8 nM | 21.5 nM | Cn1nnc2ccc(-c3c(N)c4ccc(C(F)(F)F)nc4n(-c4ccc(Cl)cc4)c3=O)cc21 [Example 63]
48 | 18.5 nM |  | Nc1c(-c2ccn3cncc3c2)c(=O)n(-c2ccc(Cl)cc2)c2nc(C(F)(F)F)ccc12 [Example 71]
49 | 16.5 nM |  | CN(C)CCn1cc2cc(-c3c(N)c4ccc(C(F)(F)F)nc4n(-c4ccc(Cl)cc4)c3=O)ccc2n1 [Example 72]
50 | 25.3 nM |  | Cn1cccc1-c1c(N)c2ccc(C(F)(F)F)nc2n(-c2ccc(Cl)cc2)c1=O [Example 28]
51 | 17 nM |  | Nc1c(-c2ccn3ncnc3c2)c(=O)n(-c2ccc(Cl)cc2)c2nc(C(F)(F)F)ccc12 [Example 60]
52 | 16.1 nM |  | Nc1c(-c2ccc3nn[nH]c3c2)c(=O)n(-c2ccc(Cl)cc2)c2nc(C(F)(F)F)ccc12 [Example 62, 4-amino-3-(1H-benzo[d][1,2,3]triazol-6-yl)-1-(4-chlorophenyl)-7-(trifluoromethyl)-1,8-naphthyridin-2(1H)-one]
53 | 20.2 nM |  | Cn1c(N)nc2ccc(-c3c(N)c4ccc(C(F)(F)F)nc4n(-c4ccc(Cl)cc4)c3=O)cc21 [Example 37]
